# Test results as given in patent US20130324522A1, “INSECT ODORANT RECEPTOR ANTAGONISTS” (THE ROCKEFELLER UNIVERSITY, priority 2010, published 2013).
# Like-named read-outs stand apart in the source and are kept apart here.
# What was measured:
# [1] = biological target: T1, serotonin receptor (5HT3) (Mus musculus, UniProt P23979); experiment: Ca2+-imaging of stable Flip-In T-Rex cell line 5HT3; assay type: cell-based; details: for inhibition at 4 µM: read-out: Percent Inhibition 5HT3
# T1 construct: Full-length cDNAs for mosquito (Anopheles gambiae) odorant receptor; expressed in transfected cells
# T1 sequence (P23979 24-489): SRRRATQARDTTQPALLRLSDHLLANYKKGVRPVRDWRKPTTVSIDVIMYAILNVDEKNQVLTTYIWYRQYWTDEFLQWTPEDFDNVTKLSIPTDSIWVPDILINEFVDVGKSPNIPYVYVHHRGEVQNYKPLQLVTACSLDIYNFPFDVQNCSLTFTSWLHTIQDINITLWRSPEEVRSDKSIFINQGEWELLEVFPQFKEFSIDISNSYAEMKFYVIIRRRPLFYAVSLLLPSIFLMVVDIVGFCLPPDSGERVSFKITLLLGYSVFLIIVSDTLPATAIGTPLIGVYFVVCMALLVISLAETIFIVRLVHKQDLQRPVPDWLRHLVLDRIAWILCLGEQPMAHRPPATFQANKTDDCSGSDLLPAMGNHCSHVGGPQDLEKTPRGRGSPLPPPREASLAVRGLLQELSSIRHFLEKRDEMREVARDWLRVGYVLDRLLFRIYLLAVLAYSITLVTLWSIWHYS
# Experimental: (§1) Full-length cDNAs for mosquito (Anopheles gambiae) odorant receptor (OR1, OR2, OR7, OR8, OR28), and fly (Drosophila melanogaster) odorant receptor (Or47a, Or83b), mouse TRP channel (TRPM8), and mouse serotonin receptor (5HT3) were obtained and subcloned into mammalian expression vectors. The following mammalian expression vectors were used:
# (§2) Stable cell lines Or47a/Or83b and 5HT3 were generated from Flip-In T-Rex cells. Flip-In T-Rex-based cell lines were cultured in DMEM supplemented with these additional antibiotics: 6 μg/mL blasticidin and 100 μg/mL hygromycin.
# (§3) Cells were trypsinized and split into 35 mm dishes 1 day before transfection. Confluent cells (60-70%) in 35 mm dishes were co-transfected with 1 μg of Or47a/Or83b plasmid in pcDNA5/FRT/TO/IRES plus the pOG44 plasmid or 1 μg of 5HT3 plasmid in pcDNA5/FRT/TO plus the pOG44 plasmid using lipofectamine 2000. Co-transfection of pOG44 and pcDNA5/FRT/TO/IRES or pcDNA5/FRT/TO allows expression of Flp recombinase and integration of the pcDNA5 plasmid into the genome via the FRT site. After one day of incubation, the transfected cells were transferred into 10 cm dishes with DMEM containing antibiotics: 20 μg/mL of hygromycin and 6 μg/mL of blasticidin. The concentration of Hygromycin was increased to 100 μg/mL when the population of cells became 30-40% confluent. The cells were cultured by changing medium every two days until cell clumps appeared. The clumps were picked and transferred into 96 well plates with DMEM containing 100 μg/mL of Hygromycin and 6 μg/mL of blasticidin. The cells were grown and transferred to 24 well plates, and ligand-evoked calcium increases were tested using the Hamamatsu FDSS6000 real time fluorescence plate reader.
# (§4) Stable cell lines were cultured in 10 cm dishes, and confluent cells (70-80%) were trypsinized. 10,000 cells/20 μL were transferred into each well of 384-well plates coated with poly-D-lysine, and cultured for 2 days. For Flip-In T-Rex cells (cell lines expressing Or47a/Or83b and 5HT3), 5 μL of tetracycline (5 μg/mL) were added 1 day before the assay. 20 μL of Ca-4 dye was loaded into each well for 1.5 hr at room temperature in the dark, and the dye-loaded plates were subjected to Ca^2+-imaging using a Hamamatsu FDSS6000 real time fluorescence plate reader. Odorant solutions (9× final concentration) were prepared by dissolving 1M stock solutions into Hank's Buffered Salt Solution (HBSS), and 30 μL of odor solution was transferred to each well in 384-well plates.
# (§5) Compounds ([…] in DMSO) were stored in 384-well plates, and last two columns (32 wells total) contained only DMSO. 200 nL of small compounds were transferred into the odorant plates before the assay using the Perkin-Elmer Janus workstation. The odorant plates were spun down to remove air bubbles, and placed on the FDSS6000 plate loader, and 5 μL of odorant solution was applied to the cell plate on the FDSS6000. Ca^2+ increase was monitored with fluorescence at 525 nm by excitation at 485 nm.
# [2] = biological target: T2, Or47a/Or83b (Drosophila melanogaster, UniProt P81921+Q9VNB5); experiment: Ca2+-imaging of stable Flip-In T-Rex cell line Or47a/Or83b; assay type: cell-based; details: for inhibition at 4 µM: read-out: Percent Inhibition OR47a OR83b
# T2 construct: Full-length cDNAs for mosquito (Anopheles gambiae) odorant receptor (OR1, OR2, OR7, OR8, OR28), and fly (Drosophila melanogaster) odorant receptor (Or47a, Or83b); expressed in transfected cells
# T2 sequence (P81921 1-385): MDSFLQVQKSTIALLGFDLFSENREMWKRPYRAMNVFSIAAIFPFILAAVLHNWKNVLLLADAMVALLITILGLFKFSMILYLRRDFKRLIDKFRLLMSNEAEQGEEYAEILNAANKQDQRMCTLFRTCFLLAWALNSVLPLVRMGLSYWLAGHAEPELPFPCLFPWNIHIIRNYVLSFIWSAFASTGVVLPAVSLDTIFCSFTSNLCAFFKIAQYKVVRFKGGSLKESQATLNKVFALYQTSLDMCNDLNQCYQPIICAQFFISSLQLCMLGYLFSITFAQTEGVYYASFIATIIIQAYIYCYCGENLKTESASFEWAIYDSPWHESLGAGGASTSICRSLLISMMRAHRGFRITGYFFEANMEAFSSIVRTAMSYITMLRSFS
# T2 sequence (Q9VNB5 1-486): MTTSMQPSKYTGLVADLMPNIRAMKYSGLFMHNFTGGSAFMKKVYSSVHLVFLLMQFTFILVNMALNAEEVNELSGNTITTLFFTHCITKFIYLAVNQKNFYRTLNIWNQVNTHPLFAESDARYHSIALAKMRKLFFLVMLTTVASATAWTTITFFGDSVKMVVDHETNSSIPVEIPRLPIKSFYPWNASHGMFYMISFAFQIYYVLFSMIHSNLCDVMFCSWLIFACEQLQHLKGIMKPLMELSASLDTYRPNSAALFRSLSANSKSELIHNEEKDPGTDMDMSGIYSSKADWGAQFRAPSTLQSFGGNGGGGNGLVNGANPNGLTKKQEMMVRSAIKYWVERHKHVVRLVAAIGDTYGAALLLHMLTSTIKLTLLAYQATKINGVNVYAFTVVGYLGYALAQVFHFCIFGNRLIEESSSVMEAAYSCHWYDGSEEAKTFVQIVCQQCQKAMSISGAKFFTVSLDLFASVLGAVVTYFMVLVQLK
# Experimental: as §1, §2, §3, §4, §5
# [3] = ligand serotonin 10 μM, read-out: IC50 5HT3
# [4] = ligand pentyl acetate 30 μM, read-out: IC50 OR47a OR83b
Compound,inhibition at 4 µM ([1]; compound applied at 4 μM) [%],inhibition at 4 µM ([2]; compound applied at 4 μM) [%],"IC50 ([2]; Table B, read-out: IC50 OR47a) [nM]",also measured
COCCNC(=O)c1ccc(CSc2nnc(-c3ccc(C)cc3)n2-c2ccccc2C)cc1 [RU-0053556],< 25,26 to 50,,
COCCCN(Cc1c(-c2ccccc2)noc1N1CCC(C)CC1)C(=O)c1ccccc1F [RU-0036876],26 to 50,51 to 74,> 1000,
Cc1ccccc1C(=O)N[C@@H]1CCCCC1NC(=O)C1CCCN(S(=O)(=O)c2cc(Cl)ccc2Cl)C1 (some centres unmarked) [RU-0045691],< 25,26 to 50,,
"CCN(CC)C(=O)c1cccc(C)c1 [DEET, N,N-diethyl-m-toluamide, reference compound]",,,,"IC50 [1, 3]: > 50000 nM; IC50 [2, 4]: > 50000 nM"
CCNc1nc(NCC)nc(SC)n1 [RU-T4],,,,"IC50 [1, 3]: 20000 to 50000 nM; IC50 [2, 4]: > 20000 nM"
CN(C)c1ccc(C(=O)N2CCOC(COCc3ccccc3F)C2)cc1 (centres unmarked) [RU-0050325],< 25,26 to 50,> 1000,
C=CCNC(=O)C(NC(=O)c1cccc(C)c1)C1CCN(C(=O)c2cccc(Br)c2)CC1 (centres unmarked) [RU-0039123],26 to 50,51 to 74,> 1000,
CCN(CC)C(=O)Oc1ccc2c(ccn2Cc2ccccc2Cl)c1NC(=O)CCCCC(=O)OC [RU-0075446],,,,inhibition at 4 µM [1]: 26 to 50%; inhibition at 4 µM [2]: < 25%
CCNc1nc(NC(C)C)nc(N(C#N)Cc2ccccc2)n1 [RU-0015806],51 to 74,51 to 74,< 100,"IC50 ([1]; Table B, read-out: IC50 5HT3): > 1000 nM"
COc1cccc(-c2nnc(SCCCC(=O)N3CCN(C(=O)CC(C)(C)C)C(C)C3)n2-c2ccc(C)cc2)c1 (centres unmarked) [RU-0071818],< 25,26 to 50,,
Fc1ccccc1/C=N/Nc1nc(N2CCCCC2)nc(N2CCOCC2)n1 [RU-0018338],26 to 50,51 to 74,< 100,
COc1ccc(OCC(=O)N2CCOC(Cc3ccccc3)C2)cc1 (centres unmarked) [RU-0050384],< 25,26 to 50,,
CCOC(=O)C1CCCN(C(=O)c2csc(CSc3nnc(-c4cccc(OC)c4)n3-c3ccc(C)cc3)n2)C1 (centres unmarked) [RU-0071628],26 to 50,51 to 74,> 1000,
Cc1nn(-c2ccc(Cl)cc2)c(C)c1C(=O)NCc1ccccn1 [RU-0048608],< 25,26 to 50,,
CC(=O)OCC(=O)NCC1Cc2cc(Oc3ccccc3)ccc2O1 (centres unmarked) [RU-0079120],26 to 50,51 to 74,< 100,
COCCCN(Cc1c(-c2ccccc2)noc1N1CCCC1)C(=O)c1ccc(F)cc1 [RU-0037386],26 to 50,51 to 74,> 1000,
CCNc1nc(NC(C)C)nc(SC)n1 [RU-T3],,,,"IC50 [1, 3]: 20000 to 50000 nM; IC50 [2, 4]: 2000 to 20000 nM"
COc1ccccc1C(=O)C1CCCN(C(=O)c2cccc(N3CCOCC3)c2)C1 (centres unmarked) [RU-0029350],< 25,51 to 74,< 100,

Compound,inhibition at 4 µM ([1]; compound applied at 4 μM) [%],inhibition at 4 µM ([2]; compound applied at 4 μM) [%],"IC50 ([2]; Table B, read-out: IC50 OR47a) [nM]",also measured
O=C(CCC1CCN(C(=O)c2cccc(-n3cccn3)c2)CC1)Nc1ccccc1 [RU-0032465],< 25,51 to 74,> 1000,
C=CCN(Cc1nccn1Cc1ccccc1F)C(=O)c1cccc(F)c1 [RU-0058232],51 to 74,26 to 50,,"IC50 ([1]; Table B, read-out: IC50 5HT3): > 1000 nM"
Cc1nc(NC(C)C)nc(NC(C)C)n1 [RU-T6],,,,IC50 [1]: > 20000 nM; IC50 [2]: > 20000 nM
O=C(c1c(F)c(F)cc(F)c1F)N1CCOC(Cc2ccccc2)C1 (centres unmarked) [RU-0050393],26 to 50,26 to 50,,
CC(C)CN(Cc1nccn1Cc1ccc(Cl)cc1Cl)C(=O)c1ccccc1F [RU-0055322],< 25,26 to 50,,
CC(C)CN(Cc1nccn1Cc1c(F)cccc1Cl)C(=O)c1ccc(F)cc1 [RU-0048054],< 25,26 to 50,,
O=C(Cc1cccc(F)c1)N1CCOC(COCc2c(Cl)cccc2Cl)C1 (centres unmarked) [RU-0050398],< 25,26 to 50,,
O=C(c1ccco1)N(Cc1nccn1Cc1ccccc1Cl)CC1CC1 [RU-0047281],> 75,> 75,> 1000,"IC50 ([1]; Table B, read-out: IC50 5HT3): 100 to 1000 nM"
Cc1cc(C)c(Cn2ccnc2CN(C(=O)c2ccccc2F)C(C)C)c(C)c1 [RU-0048001],< 25,51 to 74,> 1000,
O=C(NCCC(=O)N1CCOC(COCc2ccc(F)cc2Cl)C1)OCc1ccccc1 (centres unmarked) [RU-0050344],< 25,26 to 50,,
N#Cc1ccccc1C(=O)N1CCOC(COCc2c(Cl)cccc2Cl)C1 (centres unmarked) [RU-0050405],< 25,51 to 74,> 1000,
O=C(C1CCC1)N(Cc1ccco1)Cc1nccn1Cc1ccccc1Cl [RU-0048066],< 25,26 to 50,,
CSc1nc(NC(C)C)nc(NC(C)C)n1 [RU-T2],,,,"IC50 [1, 3]: 2000 to 20000 nM; IC50 [2, 4]: > 20000 nM"
CCN(CC)C(=O)Oc1ccc2c(ccn2Cc2cccc(C)c2)c1NC(=O)CCCCC(=O)OC [RU-0075445],,,,inhibition at 4 µM [1]: < 25%; inhibition at 4 µM [2]: < 25%
CN(Cc1nccn1Cc1c(F)cccc1Cl)C(=O)C1CCCC1 [RU-I5],,,,"IC50 [1, 3]: 2000 to 20000 nM; IC50 [2, 4]: 20000 to 50000 nM"
Cc1c(C(=O)NCc2ccco2)cnn1-c1ccccc1 [RU-0047765],< 25,26 to 50,> 1000,
C=CCN(Cc1nccn1Cc1ccccc1F)C(=O)C1CCCC1 [RU-0058964],51 to 74,51 to 74,> 1000,"IC50 ([1]; Table B, read-out: IC50 5HT3): > 1000 nM"
